Source: patent publication US8728797B2, “Yeast membrane protein expression system and its application in drug screening” (priority 2001, dated 2014)
≈ marks a conversion by molar mass, not a printed value.

Key:
S. cerevisiae AD1-8u^− = experiment: MIC microdilution test, parental strain; type: cell-based; conditions: Saccharomyces cerevisiae; AD1-8u^− parental strain; 30° C., 48 h, pH 7.0
Procedure: (§1) The MICs of antifungal agents for S. cerevisiae cells were determined by a microdilution test based on the macrodilution reference method of the National Committee for Clinical Laboratory Standards. Cells (10 μl cell suspension, 2×10^5 cells/ml) were inoculated into 90 μl CSM-URA, buffered with 10 mM 2-(N-morpholino)ethanesulfonic acid (MES) and 18 mM N-2-hydroxyethylpiperazine-N′-2-ethanesulfonic acid (HEPES), pH 7.0 and containing 0.67% (w/v) yeast nitrogen base (YNB) in microtitre plate wells. For the uracil-requiring strain AD1-8u^− the medium was supplemented with 0.02% (w/v) uridine. The wells contained, in […], doubling dilutions of antifungal agents (final concentrations: fluconazole, 40-0.078 μg/ml; itraconazole and ketoconazole, 8-0.016 μg/ml). The microtitre plates were incubated at 30° C. for 48 h with shaking and then the growth of cells in individual wells (OD590) was measured with a microplate reader (EL 340, Bio-Tek, Winooski, Vt.). The MIC80 was the lowest concentration of drug that inhibited growth yield by at least 80% compared to a no-drug control.

[1] = test system: S. cerevisiae AD1002 expressing C. albicans Cdr1p; experiment: MIC microdilution test, strain expressing Cdr1p; type: cell-based; conditions: for MIC80: AD1002 expressing Cdr1p, 30° C., 48 h, pH 7.0; for fold increase in MIC: AD1002 relative to parental AD1-8u^−
Procedure: as §1

S. cerevisiae AD1-8/CDR2 = experiment: MIC microdilution test, strain expressing Cdr2p; type: cell-based; conditions: Saccharomyces cerevisiae, AD18/CDR2, 30° C.
Procedure: as §1

Pdr5p ATPase = target: T1, Pdr5p ATPase (Saccharomyces cerevisiae, UniProt P33302); experiment: Oligomycin sensitive ATPase activity of AD124567 plasma membranes; type: biochemical, S. cerevisiae; conditions: in vitro
T1 construct: plasma membranes from the AD124567 yeast strain overexpressing Pdr5p; endogenous in cells; host or cells: S. cerevisiae AD124567 (pdr1-3, PDR5 intact), plasma membrane fraction
Procedure: (A) Inhibition profiles of oligomycin-sensitive Pdr5p ATPase activity by the purified peptides D-NH2-asparagine-tryptophan-tryptophan-lysine-valine-arginine-arginine-arginine-CONH2 (KN0) and its singly substituted Mtr-derivative KN20. (B) Inhibition profile with KN20 on the oligomycin-sensitive Cdr1p ATPase activity of plasma membranes from AD1002 minus the oligomycin-sensitive ATPase activity of plasma membranes from the isogenic AD1-8u^− strain.
Yeast were grown in YEPD, pH 5.5 at 30° C. until they reached late-exponential phase of growth (OD600 nm=7), washed twice in ice-cold distilled water, and incubated on ice for 30 min to minimize glucose-stimulated Pma1p activity. Cells were resuspended in homogenising medium (50 mM Tris pH 7.5, 2 mM EDTA and 1 mM phenylmethylsulfonyl fluoride) and disrupted using a Braun Homogeniser. Cell debris and unbroken cells were removed by centrifuging at 2,000×g at 4° C. for 10 min. A crude membrane fraction was isolated from the cell-free supernatant by centrifuging at 30,000×g at 4° C. for 45 min. Plasma membranes were prepared by centrifugation of the supernatant obtained after selective precipitation of mitochondria at pH 5.2 as described previously (Goffeau, A. and Dufour, J. P., 1988). […] Protein was determined using a micro-Bradford (Bio-Rad Laboratories, Hercules, Calif. [Bradford, M. M., 1976]) assay with gamma-globulin as standard. Nucleotide triphosphatase activity was measured by incubating the plasma membrane fractions (10 μg) at 30° C. in a final volume of 120 μl containing 6 mM NTP, 7 mM MgSO4 in 59 mM MES-Tris buffer pH 6.0-8.0. […] Other ATPase inhibitors (20 μM oligomycin, 20 μM aurovertin B or 100 μM vanadate were added to the reaction where indicated. After 30 min the reaction was stopped by adding 130 μl of a solution containing 1% (w/v) SDS, 0.6 M H2SO4, 1.2% (w/v) ammonium molybdate and 1.6% (w/v) ascorbic acid. Inorganic phosphate released from NTPs was measured at 750 nm after 10 min incubation at room temperature.

[2] = test system: AD124567 (Pdr5p-overexpressing); experiment: Disk drug susceptibility assay of chemosensitisation to fluconazole; type: cell-based, S. cerevisiae; conditions: 120 μg/ml fluconazole, 47 nanomole peptide on disk
Procedure: (A) Checkerboard drug susceptibility assay of AD124567 in the presence of the indicated concentrations of fluconazole and KN20. (B) Disk drug susceptibility assay of AD124567. This assay was conducted, as described in Materials and methods for example 4, in the absence or presence of fluconazole (120 μg/ml), and in the presence of (1) KN0 (47 nanomole), (2) KN20 (47 nanomole) or (0) control amounts of DMSO applied to disks
(§2) Drug susceptibility was measured using disk assays on CSM-URA plates (containing 1.5% w/v agar). Plates were seeded with yeast cells suspended in top agar (5 ml, 10^5 cells/ml). For the uracil-dependent parental strain, agar was supplemented with 0.02% uridine. Five microliters of drug solution or solvent control were spotted onto sterile Whatman paper disks on the top agar. […]

AD1002 = experiment: as above; type: cell-based, S. cerevisiae; conditions: 5 μg/ml fluconazole, 12 nanomole peptide on disk
Procedure: (A) Checkerboard drug susceptibility assay of AD1002. This assay was conducted as described in Materials and methods in the presence of the indicated concentrations of fluconazole and KN20. (B) Disk drug susceptibility assay of AD1002. This assay was conducted, as described in Materials and methods for Example 4, in the absence or presence of 5 μg/ml fluconazole, with (1) KN0 (12 nanomole), (2) KN20 (12 nanomole) or (0) control amounts of DMSO applied to the disks. (C) Checkerboard drug susceptibility assay of ATCC 10261. This assay was conducted, as described in Material and methods for Example 4, in the presence of the indicated concentrations of fluconazole and KN20. D indicates cell death as measured by a failure to recover any colony forming units when samples from microtitre plate wells were cultured on solid YPD medium.
as §2

T1 sequence (P33302 whole entry): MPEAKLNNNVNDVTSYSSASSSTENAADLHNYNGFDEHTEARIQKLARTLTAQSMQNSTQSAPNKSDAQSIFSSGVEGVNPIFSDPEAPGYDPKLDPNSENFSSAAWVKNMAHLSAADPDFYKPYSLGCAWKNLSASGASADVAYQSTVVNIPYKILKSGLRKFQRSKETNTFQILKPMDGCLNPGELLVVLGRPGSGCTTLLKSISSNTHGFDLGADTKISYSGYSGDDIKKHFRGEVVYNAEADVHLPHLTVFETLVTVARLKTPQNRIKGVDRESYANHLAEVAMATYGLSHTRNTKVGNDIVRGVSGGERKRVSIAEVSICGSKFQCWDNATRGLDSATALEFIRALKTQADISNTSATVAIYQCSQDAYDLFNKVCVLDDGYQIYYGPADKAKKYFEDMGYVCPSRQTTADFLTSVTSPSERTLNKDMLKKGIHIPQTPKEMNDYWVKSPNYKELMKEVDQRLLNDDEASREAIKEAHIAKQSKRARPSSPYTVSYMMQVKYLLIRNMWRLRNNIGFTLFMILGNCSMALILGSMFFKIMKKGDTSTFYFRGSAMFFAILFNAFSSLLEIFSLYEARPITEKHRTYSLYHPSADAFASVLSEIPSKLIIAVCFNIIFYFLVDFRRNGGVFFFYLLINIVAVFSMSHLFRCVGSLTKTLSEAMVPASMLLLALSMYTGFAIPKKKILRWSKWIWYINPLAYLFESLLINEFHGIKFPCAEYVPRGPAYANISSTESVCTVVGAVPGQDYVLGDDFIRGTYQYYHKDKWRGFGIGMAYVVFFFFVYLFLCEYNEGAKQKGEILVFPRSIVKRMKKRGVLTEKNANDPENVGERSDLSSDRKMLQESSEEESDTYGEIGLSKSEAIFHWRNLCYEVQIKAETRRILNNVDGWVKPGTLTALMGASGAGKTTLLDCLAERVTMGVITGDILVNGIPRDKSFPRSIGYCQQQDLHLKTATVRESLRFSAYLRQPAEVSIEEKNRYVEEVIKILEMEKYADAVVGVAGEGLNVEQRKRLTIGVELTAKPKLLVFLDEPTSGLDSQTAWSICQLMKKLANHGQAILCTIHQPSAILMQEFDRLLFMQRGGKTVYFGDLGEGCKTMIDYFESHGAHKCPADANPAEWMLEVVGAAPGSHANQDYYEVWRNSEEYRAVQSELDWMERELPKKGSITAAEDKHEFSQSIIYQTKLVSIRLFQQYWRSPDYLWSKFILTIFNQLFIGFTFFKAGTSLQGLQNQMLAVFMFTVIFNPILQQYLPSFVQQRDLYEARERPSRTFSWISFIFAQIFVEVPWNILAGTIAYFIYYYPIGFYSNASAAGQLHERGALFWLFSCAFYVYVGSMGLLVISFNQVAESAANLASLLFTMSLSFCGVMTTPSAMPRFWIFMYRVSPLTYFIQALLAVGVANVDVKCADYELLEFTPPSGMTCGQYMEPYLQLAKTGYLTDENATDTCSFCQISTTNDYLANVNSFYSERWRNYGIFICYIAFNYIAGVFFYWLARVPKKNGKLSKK

Compound	MIC80 (S. cerevisiae AD1-8u^−) [µg/mL]	MIC80 [1] [µg/mL]	fold increase in MIC [1] [fold]	MIC80 (S. cerevisiae AD1-8/CDR2) [µg/mL]	effect on oligomycin sensitive Pdr5p ATPase activity (Pdr5p ATPase)	chemosensitisation to fluconazole in disk assay [2]	chemosensitisation to fluconazole in disk assay (AD1002)
CCC(C)n1ncn(-c2ccc(N3CCN(c4ccc(OCC5COC(Cn6cncn6)(c6ccc(Cl)cc6Cl)O5)cc4)CC3)cc2)c1=O (centres unmarked) [itraconazole]	< 0.016	4 (≈ 5.67 µM)	> 250	1 (≈ 1.42 µM)	–	–	–
CC(=O)N1CCN(c2ccc(OCC3COC(Cn4ccnc4)(c4ccc(Cl)cc4Cl)O3)cc2)CC1 (centres unmarked) [ketoconazole]	< 0.016	0.5 (≈ 0.941 µM)	> 31	2 (≈ 3.76 µM)	–	–	–
D-NH2-asparagine-tryptophan-tryptophan-lysine-valine-arginine-arginine-arginine-CONH2 [KN0]	–	–	–	–	ineffective	ineffective at chemosensitisation	ineffective at chemosensitisation
